Assay results taken from PubChem BioAssay (NCI).
“And” between values parts separate entries of the source, which are not always exact repeats. Equal values may be shown once.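 A five-concentration, 48-hour dose response in 96-well plates underlies each endpoint, interpolated linearly between surrounding concentrations. At the GI50, growth is halved. TGI: concentration producing complete growth inhibition.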

Experiments:
Assay in all cases: NCI-60 cell line screen, 48 h
A498 renal = test system: A498 renal
DU-145 prostate = test system: DU-145 prostate
EKVX NSCLC = test system: EKVX NSCLC
HOP-62 NSCLC = test system: HOP-62 NSCLC
NCI-H226 lung = test system: NCI-H226 lung
PC-3 prostate = test system: PC-3 prostate
SK-MEL-5 melanoma = test system: SK-MEL-5 melanoma
SK-OV-3 ovarian = test system: SK-OV-3 ovarian
UACC-62 melanoma = test system: UACC-62 melanoma
UO-31 renal = test system: UO-31 renal

Structure (SMILES) | TGI (A498 renal) | TGI (DU-145 prostate) | TGI (EKVX NSCLC) | TGI (HOP-62 NSCLC) | TGI (NCI-H226 lung) | TGI (PC-3 prostate) | TGI (SK-MEL-5 melanoma) | TGI (SK-OV-3 ovarian) | TGI (UACC-62 melanoma) | TGI (UO-31 renal) | GI50 (A498 renal) | GI50 (DU-145 prostate) | GI50 (EKVX NSCLC) | GI50 (HOP-62 NSCLC) | GI50 (NCI-H226 lung) | GI50 (PC-3 prostate) | GI50 (SK-MEL-5 melanoma) | GI50 (SK-OV-3 ovarian) | GI50 (UACC-62 melanoma) | GI50 (UO-31 renal)
O=C(O)CCCCn1cnc2c(=S)nc[nH]c21 | > 100 µM | > 100 µM | > 100 µM | > 100 µM | > 100 µM | > 100 µM | > 100 µM | > 100 µM | > 100 µM | > 100 µM |  |  |  |  |  |  |  |  |  | 
N#Cc1c(-c2ccccc2)cc(-c2ccccc2)n(CCCCC(=O)NO)c1=O | 3.55 µM | 11.3 µM | 11.7 µM | 7.35 µM | 19 µM | 15.9 µM | 3.59 µM | 5 µM | 6.02 µM | 3.47 µM | 1.25 µM | 2.96 µM | 2.82 µM | 2.24 µM | 3.98 µM | 2.72 µM | 1.84 µM | 2.06 µM | 2.2 µM | 1.22 µM
CC(=O)OC[C@]12CC[C@@H]([C@@H](C)C(N)=O)[C@@H]1[C@H]1CC[C@@H]3[C@@]4(C)CC[C@H](OC(C)=O)C(C)(C)[C@@H]4CC[C@@]3(C)[C@]1(C)CC2 | 25.6 µM | 23.3 µM | 22.5 µM | 26.6 µM | 23.9 µM | 11.6 µM | 13.1 µM | 64 µM | 19.5 µM | 21.1 µM | 12.8 µM | 9.94 µM | 9.27 µM | 11 µM | 7.28 µM | 2.67 µM | 3.8 µM | 13.4 µM | 5.46 µM | 7.57 µM
COc1ccc(Cc2cnc(NC(=O)c3sc4ccccc4c3Cl)s2)cc1 | 12.7 µM | > 100 µM | > 100 µM | > 100 µM | > 100 µM | > 100 µM | 3.56 µM | > 100 µM | > 100 µM | > 100 µM | 0.222 µM | 0.37 µM | 0.48 µM | 0.513 µM | 1.43 µM | 0.405 µM | 0.335 µM | 0.619 µM | 0.468 µM | 0.843 µM
CN1c2ccccc2S(=O)(=O)n2c(COc3ccc(Cl)cc3)nnc21 | > 100 µM | > 100 µM | > 100 µM | 47.8 µM | > 100 µM | > 100 µM | > 100 µM | > 100 µM | > 100 µM | > 100 µM |  |  |  |  |  |  |  |  |  | 
COc1c(CNC(=O)CCl)cc2[nH]c(C)cc2c1CNC(=O)CCl | 19.1 µM | 19.7 µM | 27.5 µM | 20.2 µM | 73.7 µM | 33.9 µM | 25 µM | 86.4 µM | 4.11 µM | 56.7 µM | 4.29 µM | 5.03 µM | 11 µM | 6.1 µM | 9.2 µM | 12.2 µM | 8.02 µM | 12.4 µM | 1.28 µM | 15.7 µM
CCC1CC(=O)N(SCC(N)C(=O)O)C1=O (stereo not drawn) | > 100 µM | > 100 µM | > 100 µM | > 100 µM | > 100 µM | > 100 µM | > 100 µM | > 100 µM | > 100 µM | > 100 µM |  |  |  |  |  |  |  |  |  | 
COc1cc([C@@H]2c3cc4c(cc3[C@H](O)[C@H]3COC(=O)[C@H]23)OCO4)cc(OC)c1OC |  | 0.5 µM | > 100 µM and 50 µM | > 100 µM and 50 µM and > 75 µM |  | > 100 µM and 50 µM | 0.0477 µM |  | > 100 µM and 34.7 µM | > 100 µM and 50 µM and 42.7 µM | < 0.01 µM | < 0.01 µM |  | < 0.005 µM | < 0.01 µM | < 0.01 µM |  | < 0.01 µM | < 0.01 µM | < 0.005 µM
COc1cccc(C2C3=C(COC3=O)N(CCO)c3cc4c(cc32)OCCO4)c1 (stereo not drawn) | 0.276 µM | 0.65 µM | > 50 µM | > 50 µM | > 50 µM | > 50 µM | 1.23 µM | 4.28 µM | > 50 µM | > 15.6 µM | 0.0264 µM | 0.157 µM | 0.265 µM | 0.287 µM | 7.26 µM | 0.12 µM | 0.0474 µM | 0.128 µM |  | 0.268 µM
COC(=O)[C@@]1(C)CC[C@]2(C)CC[C@]3(C)C4=CC=C5C(=CC(=O)C(O)=C5C)[C@]4(C)CC[C@@]3(C)[C@@H]2C1 | 0.938 µM | 0.382 µM | 1.11 µM | 1.54 µM | 0.739 µM | 0.573 µM | 0.57 µM | 2.01 µM | 0.467 µM | 0.261 µM | 0.333 µM | 0.182 µM | 0.295 µM | 0.483 µM | 0.294 µM | 0.24 µM | 0.2 µM | 0.775 µM | 0.202 µM | 0.127 µM
CCOC(=O)C1=C(C)NC2SC(=O)/C(=C\c3ccccc3)N2C1c1ccccc1 (stereo not drawn) | > 100 µM | > 100 µM | > 100 µM | > 100 µM | > 100 µM | > 100 µM | > 100 µM | > 100 µM | > 100 µM | > 100 µM | > 100 µM | > 100 µM | > 100 µM | > 100 µM | > 100 µM | 31 µM | 16.1 µM | > 100 µM | > 100 µM | > 100 µM
O=C1/C(=C\c2coc3ccccc3c2=O)c2ccccc2N1c1c(Cl)cccc1Cl | > 100 µM | > 100 µM | > 100 µM | > 100 µM | > 100 µM | 30.5 µM | > 100 µM | > 100 µM | > 100 µM | 11.9 µM | 4.35 µM | 4.71 µM | 2.82 µM | 4.77 µM | 20.7 µM | 1.35 µM | 2.44 µM | 35.6 µM | 2.13 µM | 1.8 µM
COc1cc2c3c(n(C)c(=O)c2cc1OC)-c1cc2c(cc1/C3=C\CCCBr)OCO2 | 68.9 µM | > 100 µM | > 62.5 µM | 17.1 µM | > 100 µM | > 100 µM | > 100 µM | 44.8 µM | 28.9 µM | > 100 µM | 26.3 µM | > 59.6 µM | 15.6 µM |  | 77.5 µM | > 95.2 µM | > 69.5 µM | 18.1 µM | 7.55 µM | > 49.7 µM
CCc1c(Cl)nc(Cl)nc1Cl | 16.8 µM | 6.35 µM | 1.94 µM | 5.81 µM | 0.283 µM | 4.06 µM | 1.39 µM | 12.3 µM | 2.28 µM | 4.85 µM |  |  |  |  |  |  |  |  |  | 
